One assay addresses human orexin receptor 2 (Homo sapiens (Human), UniProt O43614). Briefly: Orexin antagonist activity, intracellular calcium FLIPR assay (orexin receptor 2). In kind it is cell-based. As to conditions: RBL-2H3 cells stably expressing human orexin receptor 2; Ca2+ dye FLIPR; compound 15 minutes before orexin-A at approximately 80% maximal response; read-out: Human Orexin2R IC50. The protocol:
(§1) Orexin antagonist activity was determined by measuring changes in intracellular calcium levels using a Ca^2+ sensitive fluorescent dye. The changes in fluorescent signal were monitored by Fluorescent Imaging Plate Reader (FLIPR™) technology available from Molecular Devices, LLC, U.S.A. Orexin mediated increases in intracellular Ca^2+ concentration were readily detected upon activation with orexin-A. Twenty-four hours prior to the assay, RBL-2H3 cells stably expressing either human orexin receptor 1 or human orexin receptor 2 were seeded in cell culture medium in black, clear-bottom 384-well plates (commercially available from Corning Inc., U.S.A.) and grown overnight at 37° C., 5% CO2. On the day of the assay, cell culture media was removed and cells were loaded with Calcium 5 Dye (commercially sold by Molecular Devices, LLC, U.S.A.) for 1 hour at 37° C., 5% CO2. Test compounds (at 10 point half log concentration response curves from 10 μM) were added to cells for 15 minutes prior to the addition of orexin-A to all wells, to achieve a final concentration that produces approximately an 80% maximal response. The IC50 values were determined from ten point concentration response curves. Curves were generated using the average of two wells for each data point.
A general note: Calcium flux is commonly read through the fluorescence of an indicator in the cells.

A further assay has as its target human orexin receptor 1 (Homo sapiens (Human), UniProt O43613). Briefly: Orexin antagonist activity, intracellular calcium FLIPR assay (orexin receptor 1). In kind it is cell-based. The conditions noted are these: RBL-2H3 cells stably expressing human orexin receptor 1; Ca2+ dye FLIPR; compound 15 minutes before orexin-A at approximately 80% maximal response; read-out: Human Orexin1R IC50. Here is the method: as §1

Structures are written as SMILES.

These results are taken from patent US9493432B2, “Cyclopentylbenzamide derivatives and their use for the treatment of psychotic and cognitive disorders” (Takeda Pharmaceutical Company Limited, priority 2013, dated 2016).

By IC50 is commonly meant the concentration that gives 50% inhibition.

human orexin receptor 1, sequence (O43613 whole entry): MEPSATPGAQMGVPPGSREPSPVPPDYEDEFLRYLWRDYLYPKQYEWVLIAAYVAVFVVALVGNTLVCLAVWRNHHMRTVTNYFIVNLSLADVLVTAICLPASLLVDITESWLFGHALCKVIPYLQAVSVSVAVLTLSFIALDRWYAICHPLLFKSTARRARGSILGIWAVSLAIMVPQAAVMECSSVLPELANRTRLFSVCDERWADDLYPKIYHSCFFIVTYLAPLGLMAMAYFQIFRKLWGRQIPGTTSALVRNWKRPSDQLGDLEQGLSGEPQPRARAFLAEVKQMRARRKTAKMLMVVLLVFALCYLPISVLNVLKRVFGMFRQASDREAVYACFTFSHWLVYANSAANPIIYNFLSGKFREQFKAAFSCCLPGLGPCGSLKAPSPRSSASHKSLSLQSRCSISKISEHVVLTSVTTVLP
human orexin receptor 2, sequence (O43614 whole entry): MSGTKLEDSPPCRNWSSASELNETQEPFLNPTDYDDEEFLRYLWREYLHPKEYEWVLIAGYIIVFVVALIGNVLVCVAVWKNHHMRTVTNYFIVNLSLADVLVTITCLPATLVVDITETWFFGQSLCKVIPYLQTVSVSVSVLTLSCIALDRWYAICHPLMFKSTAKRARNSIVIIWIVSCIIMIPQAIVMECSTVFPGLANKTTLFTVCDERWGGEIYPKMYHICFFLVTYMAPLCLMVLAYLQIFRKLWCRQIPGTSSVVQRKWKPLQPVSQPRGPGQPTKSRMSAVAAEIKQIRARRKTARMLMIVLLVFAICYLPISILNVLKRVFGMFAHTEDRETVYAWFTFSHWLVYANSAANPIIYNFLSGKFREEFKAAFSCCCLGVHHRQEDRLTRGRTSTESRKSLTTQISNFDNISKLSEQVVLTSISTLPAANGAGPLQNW

Regarding `CCOc1cccc(OCC)c1C(=O)N[C@H]1CCC[C@H]1Nc1nc2ccccc2o1` [Example 18, N-[(1S,2R)-2-[(1,3-Benzoxazol-2-yl)amino]cyclopentyl]-2,6-diethoxy-benzamide], the IC50 at human orexin receptor 2 was 460 nM; at human orexin receptor 1, 25 nM.
For `Cc1ccc(-n2nccn2)c(C(=O)N[C@H]2CCC[C@@H]2Nc2nc3ccccc3s2)c1` [Example 19, N-[(1S,2S)-2-[(1,3-Benzothiazol-2-yl)amino]cyclopentyl]-5-methyl-2-(2H-1,2,3-triazol-2-yl)benzamide] the same measures were 7300 nM and 15 nM.
The like results for `Cc1ccc(-n2nccn2)c(C(=O)N[C@H]2CCC[C@@H]2Nc2ccc3ccccc3n2)c1` [Example 20, 5-Methyl-N-[(1S,2S)-2-[(quinolin-2-yl)amino]cyclopentyl]-2-(2H-1,2,3-triazol-2-yl)benzamide] were, in that order, 4100 nM and 290 nM.
As to `COc1cccc(OC)c1C(=O)NC1CN(C(=O)OCc2ccccc2)CC1Nc1nc2ccc(Cl)cc2s1` (stereo not drawn) [Example 22, Benzyl cis-3-[(6-chloro-1,3-benzothiazol-2-yl)amino]-4-[(2,6-dimethoxybenzene)amido]pyrrolidine-1-carboxylate], the IC50 worked out at 8600 nM on human orexin receptor 2 and 23 nM at human orexin receptor 1.
Turning to `CCOC(=O)N1CC(NC(=O)c2c(OC)cccc2OC)C(Nc2nc3ccc(Cl)cc3s2)C1` (stereo not drawn) [Example 23, Ethyl cis-3-[(6-Chloro-1,3-benzothiazol-2-yl)amino]-4-[(2,6-dimethoxy-benzene)amido]pyrrolidine-1-carboxylate], the IC50 amounted to 620 nM on human orexin receptor 2 and 65 nM on human orexin receptor 1.
For `Cc1ccc(-n2nccn2)c(C(=O)NC2CCCC2Cc2ccc3ccccc3n2)c1` (stereo not shown) [Example 27, 5-Methyl-N-[2-(quinolin-2-ylmethyl)cyclopentyl]-2-(2H-1,2,3-triazol-2-yl)benzamide] the same measures were 8500 nM and 52 nM.
Take `CCOc1ccc(C)cc1C(=O)NC1CCCC1Cc1ccc2ccccc2n1` (stereo not shown) [Example 28, 2-Ethoxy-5-methyl-N-[2-(quinolin-2-ylmethyl)cyclopentyl]-benzamide]: the IC50 on human orexin receptor 2 turned out to be 1900 nM; at human orexin receptor 1, 140 nM.
For `COc1cccc(OC)c1C(=O)NC1CCCC1Cc1ccc2ccccc2n1` (stereo not shown) [Example 29, 2,6-Dimethoxy-N-[2-(quinolin-2-ylmethyl)cyclopentyl]benzamide] the same measures were 2900 nM and 550 nM.
For `CCOc1cccc(OCC)c1C(=O)NC1CCCC1Cc1ccc2ccccc2n1` (stereo not shown) [Example 30, 2,6-Diethoxy-N-(2-(quinolin-2-ylmethyl)cyclopentyl)benzamide] the same measures were 370 nM and 320 nM.
Consider `CCOc1ccc(C)cc1C(=O)NC1CCCC1Cc1ccc2ccccc2n1` (stereo not shown) [Example 31, 2-Ethoxy-5-methyl-N-(2-(quinolin-2-ylmethyl)cyclopentyl)-benzamide], for which the figures for the IC50 on human orexin receptor 2 and on human orexin receptor 1 were 3300 nM and 92 nM, respectively.
The like results for `COc1cccc(OC)c1C(=O)NC1CCCC1Cc1nc2ccc(Cl)cc2s1` (stereo not shown) [Example 32, N-{2-[(6-Chloro-1,3-benzothiazol-2-yl)methyl]cyclopentyl}-2,6-dimethoxybenzamide] were, in that order, 980 nM and 900 nM.
As for `COc1cccc(OC)c1C(=O)N(C)[C@H]1CCC[C@@H]1Nc1nc2ccc(F)cc2s1` [Example 34, N-[(1S,2S)-2-[(6-Fluoro-1,3-benzothiazol-2-yl)amino]cyclopentyl]-2,6-dimethoxy-N-methylbenzamide], the IC50 at human orexin receptor 2 was 1100 nM; at human orexin receptor 1, 4.7 nM.
For `O=C(N[C@H]1CCC[C@@H]1Nc1nc2ccc(F)cc2s1)c1ccccc1-n1cccn1` [Example 35, N-[(1S,2S)-2-[(6-Fluoro-1,3-benzothiazol-2-yl)amino]cyclopentyl]-2-(1H-pyrazol-1-yl)benzamide] the same measures were 4300 nM and 6.7 nM.
`O=C(N[C@H]1CCC[C@@H]1Nc1nc2ccc(F)cc2s1)c1cc(F)ccc1-n1nccn1` [Example 36, 5-Fluoro-N-[(1S,2S)-2-[(6-fluoro-1,3-benzothiazol-2-yl)amino]cyclopentyl]-2-(2H-1,2,3-triazol-2-yl)benzamide]: the figures for the IC50 at human orexin receptor 2 and at human orexin receptor 1 were 5400 nM and 8.3 nM, respectively.
On to `O=C(N[C@H]1CCC[C@@H]1Nc1nc2ccc(F)cc2s1)c1ccccc1Cl` [Example 37, 2-Chloro-N-[(1S,2S)-2-[(6-fluoro-1,3-benzothiazol-2-yl)amino]cyclopentyl]benzamide], for which the half-inhibitory concentration (IC50) on human orexin receptor 2 came out at 3500 nM; at human orexin receptor 1, 11 nM.
For `Cc1ccc(-n2ccnn2)c(C(=O)N[C@H]2CCC[C@@H]2Nc2nc3ccc(F)cc3s2)c1` [Example 38, N-[(1S,2S)-2-[(6-Fluoro-1,3-benzothiazol-2-yl)amino]cyclopentyl]-5-methyl-2-(1H-1,2,3-triazol-1-yl)benzamide] the same measures were above 10000 nM and 13 nM.
For `Cc1noc(-c2ccccc2C(=O)N[C@H]2CCC[C@@H]2Nc2nc3ccc(F)cc3s2)n1` [Example 39, N-[(1S,2S)-2-[(6-Fluoro-1,3-benzothiazol-2-yl)amino]cyclopentyl]-2-(3-methyl-1,2,4-oxadiazol-5-yl)benzamide] the same measures were 3800 nM and 14 nM.
Consider `O=C(N[C@H]1CCC[C@@H]1Nc1nc2ccc(F)cc2s1)c1ccccc1-c1ncccn1` [Example 40, N-[(1S,2S)-2-[(6-Fluoro-1,3-benzothiazol-2-yl)amino]cyclopentyl]-2-(pyrimidin-2-yl)benzamide], for which the IC50 at human orexin receptor 2 turned out to be 3300 nM; at human orexin receptor 1, 15 nM.
Regarding `COc1ccc(OC)c(C(=O)N[C@H]2CCC[C@@H]2Nc2nc3ccc(F)cc3s2)c1` [Example 41, N-[(1S,2S)-2-[(6-Fluoro-1,3-benzothiazol-2-yl)amino]cyclopentyl]-2,5-dimethoxybenzamide], the IC50 worked out at 2100 nM on human orexin receptor 2 and 16 nM at human orexin receptor 1.
With `O=C(N[C@H]1CCC[C@@H]1Nc1nc2ccc(F)cc2s1)c1ccccc1-n1ccnc1` [Example 43, N-[(1S,2S)-2-[(6-Fluoro-1,3-benzothiazol-2-yl)amino]cyclopentyl]-2-(1H-imidazol-1-yl)benzamide], the values for the IC50 on human orexin receptor 2 and at human orexin receptor 1 were above 10000 nM and 39 nM, respectively.
The like results for `O=C(N[C@H]1CCC[C@@H]1Nc1nc2ccc(F)cc2s1)c1ccccc1-n1cncn1` [Example 44, N-[(1S,2S)-2-[(6-Fluoro-1,3-benzothiazol-2-yl)amino]cyclopentyl]-2-(1H-1,2,4-triazol-1-yl)benzamide] were, in that order, above 10000 nM and 51 nM.
The like results for `COc1cccc(F)c1C(=O)N[C@H]1CCC[C@@H]1Nc1nc2ccc(F)cc2s1` [Example 46, 2-Fluoro-N-[(1S,2S)-2-[(6-fluoro-1,3-benzothiazol-2-yl)amino]cyclopentyl]-6-methoxybenzamide] were, in that order, 6300 nM and 110 nM.
With `O=C(N[C@H]1CCC[C@@H]1Nc1nc2ccc(F)cc2s1)c1c(F)cccc1F` [Example 47, 2,6-Difluoro-N-[(1S,2S)-2-[(6-fluoro-1,3-benzothiazol-2-yl)amino]-cyclopentyl]benzamide], the IC50 on human orexin receptor 2 is above 10000 nM; on human orexin receptor 1 it was 150 nM.
For `O=C(N[C@H]1CCC[C@@H]1Nc1nc2ccc(F)cc2s1)c1ccccc1F` [Example 48, 2-Fluoro-N-[(1S,2S)-2-[(6-fluoro-1,3-benzothiazol-2-yl)amino]cyclopentyl]-benzamide] the same measures were 3700 nM and 160 nM.
For the compound `CCOc1ccccc1C(=O)N[C@H]1CCC[C@@H]1Nc1nc2ccc(F)cc2s1` [Example 49, 2-Ethoxy-N-[(1S,2S)-2-[(6-fluoro-1,3-benzothiazol-2-yl)amino]cyclopentyl]-benzamide], the concentration for half-maximal inhibition (IC50) on human orexin receptor 2 came out at 1400 nM; on human orexin receptor 1, 190 nM.
As for `COc1ccccc1C(=O)N[C@H]1CCC[C@@H]1Nc1nc2ccc(F)cc2s1` [Example 50, N-[(1S,2S)-2-[(6-Fluoro-1,3-benzothiazol-2-yl)amino]cyclopentyl]-2-methoxybenzamide], the IC50 at human orexin receptor 2 came out at 3400 nM; on human orexin receptor 1, 190 nM.
On to `COc1ccc(F)cc1C(=O)N[C@H]1CCC[C@@H]1Nc1nc2ccc(F)cc2s1` [Example 53, 5-Fluoro-N-[(1S,2S)-2-[(6-fluoro-1,3-benzothiazol-2-yl)amino]cyclopentyl]-2-methoxybenzamide], for which the IC50 stood at 3300 nM on human orexin receptor 2 and 280 nM on human orexin receptor 1.
For `COc1c(F)cccc1C(=O)N[C@H]1CCC[C@@H]1Nc1nc2ccc(F)cc2s1` [Example 54, 3-Fluoro-N-[(1S,2S)-2-[(6-fluoro-1,3-benzothiazol-2-yl)amino]cyclopentyl]-2-methoxybenzamide] the same measures were 3500 nM and 310 nM.
The like results for `O=C(N[C@H]1CCC[C@@H]1Nc1nc2ccc(F)cc2s1)c1ccccc1-n1nccn1` [Example 59, N-[(1S,2S)-2-[(6-Fluoro-1,3-benzothiazol-2-yl)amino]cyclopentyl]-2-(2H-1,2,3-triazol-2-yl)benzamide] were, in that order, 6700 nM and 11 nM.
